The text below walks through data of PubChem BioAssay (NCI).

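These data come from cells grown in 96-well plates and exposed to compound for 48 hours at five concentrations. The concentration for full growth arrest is given as TGI.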

For one test, the system named is UACC-257 melanoma. Nature of the test: NCI anticancer screen, dose series, 48 h.
Compound `[N-]=[N+]=Nc1cc(=O)[nH]nc1-c1ccccc1` gave a TGI of over 100 µM.
As to `O=C(NCCCl)N(O)C(=O)Nc1ccccc1`, the TGI was over 100 µM.
On to `O=C(/N=C/c1c(O)c2ccccc2oc1=O)Oc1ccccc1`, for which the TGI was 92.2 µM.

For the next test, the system named is M14 melanoma. As to the kind of experiment: NCI anticancer screen, dose series, 48 h.
With `O=C1c2cccc3cccc(c23)C(=O)N1CCCNCCCNCCCCNCCCNCCCN1C(=O)c2cccc3cccc(c23)C1=O`, the TGI is 16.2 µM.
Still for that read-out and setting: the value for `C#CC(C)(C)OC(=O)C(=[N+]=[N-])C(C)=O` was over 10 µM.
The same measure, in the same setting: the value for `Nc1nc(NCC2(CO)CC2)cc(=O)[nH]1` was over 100 µM.
The same measure, in the same setting: the value for `Cc1ccc(-c2n[nH]c(=O)n2/N=C\c2ccc([N+](=O)[O-])cc2)cc1` was over 100 µM; that for `CC(CO)CCNc1ncnc2c1ncn2CCC(=O)OC(C)(C)C` (configuration not stated) was over 100 µM; that for `COc1ccc2c(c1)nc1n2C(c2c(Cl)cccc2Cl)SC1` (configuration not stated) was over 43.7 µM.
In the case of `CCOC(=O)c1c(NC(=O)OC)c(C#N)c2n1CCCCC2`, the TGI was over 100 µM.
Same read-out and setting: the value for `CN(C)c1ccc(/C=N\NC(=O)Nc2cccc3ccccc23)cc1` was over 100 µM; that for `S=C1SSC2N=CC=CC12` (configuration not stated) was over 100 µM.
Still for that read-out and setting: the value for `CNC(=S)N=Nc1c(O)n(CN2CCOCC2)c2ccc([N+](=O)[O-])cc12` was over 100 µM; that for `[N-]=[N+]=Nc1cc(=O)[nH]nc1-c1ccccc1` was over 100 µM.
With `O=C(NCCCl)N(O)C(=O)Nc1ccccc1`, the TGI was over 100 µM.
Still for that read-out and setting: the value for `O=C(/N=C/c1c(O)c2ccccc2oc1=O)Oc1ccccc1` was over 100 µM.

The test system of a further test is OVCAR-5 ovarian. As to the kind of experiment: NCI anticancer screen, dose series, 48 h.
`O=C1c2cccc3cccc(c23)C(=O)N1CCCNCCCNCCCCNCCCNCCCN1C(=O)c2cccc3cccc(c23)C1=O` displayed a TGI of 21.9 µM.
The same measure, in the same setting: the value for `C#CC(C)(C)OC(=O)C(=[N+]=[N-])C(C)=O` was over 10 µM; that for `Nc1nc(NCC2(CO)CC2)cc(=O)[nH]1` was over 100 µM.
Same read-out and setting: the value for `CCOC(=O)/C=C/[C@H](O[Si](CC)(CC)CC)C(C)(C)C` was over 100 µM; that for `Cc1ccc(-c2n[nH]c(=O)n2/N=C\c2ccc([N+](=O)[O-])cc2)cc1` was over 100 µM.
Consider `CC(CO)CCNc1ncnc2c1ncn2CCC(=O)OC(C)(C)C` (configuration not stated), for which the TGI was over 100 µM.
`Nc1nc(Cl)c(N)c(NCC2(CO)CCCC2)n1`: the TGI is over 100 µM.
Still for that read-out and setting: the value for `COc1ccc2c(c1)nc1n2C(c2c(Cl)cccc2Cl)SC1` (configuration not stated) was over 100 µM; that for `CN(C)c1ccc(/C=N\NC(=O)Nc2cccc3ccccc23)cc1` was over 100 µM; that for `S=C1SSC2N=CC=CC12` (configuration not stated) was over 100 µM.
Same read-out and setting: then `CNC(=S)N=Nc1c(O)n(CN2CCOCC2)c2ccc([N+](=O)[O-])cc12`, with 70.5 µM; and `O=C(NCCCl)N(O)C(=O)Nc1ccccc1`, with over 100 µM.
The same measure, in the same setting: then `O=C(/N=C/c1c(O)c2ccccc2oc1=O)Oc1ccccc1`, with over 100 µM.

A further test deals with MDA-MB-231 breast. As to the kind of experiment: NCI anticancer screen, dose series, 48 h.
`O=C1c2cccc3cccc(c23)C(=O)N1CCCNCCCNCCCCNCCCNCCCN1C(=O)c2cccc3cccc(c23)C1=O`: the TGI came out at 22.4 µM.
The same measure, in the same setting: then `C#CC(C)(C)OC(=O)C(=[N+]=[N-])C(C)=O`, with over 10 µM; and `Nc1nc(NCC2(CO)CC2)cc(=O)[nH]1`, with over 100 µM; and `CCOC(=O)/C=C/[C@H](O[Si](CC)(CC)CC)C(C)(C)C`, with over 100 µM.
Take `Cc1ccc(-c2n[nH]c(=O)n2/N=C\c2ccc([N+](=O)[O-])cc2)cc1`: the TGI is over 75.9 µM.
Still for that read-out and setting: the value for `CC(CO)CCNc1ncnc2c1ncn2CCC(=O)OC(C)(C)C` (configuration not stated) was over 100 µM; that for `Nc1nc(Cl)c(N)c(NCC2(CO)CCCC2)n1` was over 100 µM; that for `COc1ccc2c(c1)nc1n2C(c2c(Cl)cccc2Cl)SC1` (configuration not stated) was over 100 µM.
On the same count and under the same terms, the value for `CCOC(=O)c1c(NC(=O)OC)c(C#N)c2n1CCCCC2` was 91.7 µM; that for `CN(C)c1ccc(/C=N\NC(=O)Nc2cccc3ccccc23)cc1` was 32.9 µM; that for `S=C1SSC2N=CC=CC12` (configuration not stated) was over 100 µM.
In turn, `CNC(=S)N=Nc1c(O)n(CN2CCOCC2)c2ccc([N+](=O)[O-])cc12` displayed a TGI of 25 µM.
Still for that read-out and setting: the value for `[N-]=[N+]=Nc1cc(=O)[nH]nc1-c1ccccc1` was over 100 µM.
The same measure, in the same setting: then `O=C(NCCCl)N(O)C(=O)Nc1ccccc1`, with over 100 µM; and `O=C(/N=C/c1c(O)c2ccccc2oc1=O)Oc1ccccc1`, with 84.1 µM.

The test system of another test is IGROV1 ovarian. Nature of the test: NCI anticancer screen, dose series, 48 h.
`O=C1c2cccc3cccc(c23)C(=O)N1CCCNCCCNCCCCNCCCNCCCN1C(=O)c2cccc3cccc(c23)C1=O`: the TGI worked out at 24.5 µM.
On the same count and under the same terms, the value for `C#CC(C)(C)OC(=O)C(=[N+]=[N-])C(C)=O` was over 10 µM.
On the same count and under the same terms, the value for `Nc1nc(NCC2(CO)CC2)cc(=O)[nH]1` was over 100 µM; that for `CCOC(=O)/C=C/[C@H](O[Si](CC)(CC)CC)C(C)(C)C` was over 100 µM; that for `Cc1ccc(-c2n[nH]c(=O)n2/N=C\c2ccc([N+](=O)[O-])cc2)cc1` was over 100 µM.
On the same count and under the same terms, the value for `CC(CO)CCNc1ncnc2c1ncn2CCC(=O)OC(C)(C)C` (configuration not stated) was over 100 µM; that for `Nc1nc(Cl)c(N)c(NCC2(CO)CCCC2)n1` was over 100 µM; that for `COc1ccc2c(c1)nc1n2C(c2c(Cl)cccc2Cl)SC1` (configuration not stated) was over 100 µM.
As to `CCOC(=O)c1c(NC(=O)OC)c(C#N)c2n1CCCCC2`, the TGI is over 100 µM.
On the same count and under the same terms, then `CN(C)c1ccc(/C=N\NC(=O)Nc2cccc3ccccc23)cc1`, with 36.6 µM; and `S=C1SSC2N=CC=CC12` (configuration not stated), with over 100 µM; and `[N-]=[N+]=Nc1cc(=O)[nH]nc1-c1ccccc1`, with over 100 µM.
Take `O=C(NCCCl)N(O)C(=O)Nc1ccccc1`: the TGI is over 100 µM.
The same measure, in the same setting: the value for `O=C(/N=C/c1c(O)c2ccccc2oc1=O)Oc1ccccc1` was 60.7 µM.

The next test has as its system A498 renal. As to the kind of experiment: NCI anticancer screen, dose series, 48 h.
Compound `O=C1c2cccc3cccc(c23)C(=O)N1CCCNCCCNCCCCNCCCNCCCN1C(=O)c2cccc3cccc(c23)C1=O` yielded a TGI of 25.2 µM.
The same measure, in the same setting: the value for `C#CC(C)(C)OC(=O)C(=[N+]=[N-])C(C)=O` was over 10 µM.
The same measure, in the same setting: then `Nc1nc(NCC2(CO)CC2)cc(=O)[nH]1`, with over 100 µM; and `CCOC(=O)/C=C/[C@H](O[Si](CC)(CC)CC)C(C)(C)C`, with over 100 µM.
With `Cc1ccc(-c2n[nH]c(=O)n2/N=C\c2ccc([N+](=O)[O-])cc2)cc1`, the TGI was over 100 µM.
For `CC(CO)CCNc1ncnc2c1ncn2CCC(=O)OC(C)(C)C` (configuration not stated), the TGI is over 100 µM.
On the same count and under the same terms, then `Nc1nc(Cl)c(N)c(NCC2(CO)CCCC2)n1`, with over 100 µM; and `COc1ccc2c(c1)nc1n2C(c2c(Cl)cccc2Cl)SC1` (configuration not stated), with over 100 µM; and `CCOC(=O)c1c(NC(=O)OC)c(C#N)c2n1CCCCC2`, with over 100 µM.
`CN(C)c1ccc(/C=N\NC(=O)Nc2cccc3ccccc23)cc1` came in with a TGI of 64.8 µM.
In turn, `S=C1SSC2N=CC=CC12` (configuration not stated) returned a TGI of over 100 µM.
On the same count and under the same terms, the value for `CNC(=S)N=Nc1c(O)n(CN2CCOCC2)c2ccc([N+](=O)[O-])cc12` was 66.8 µM; that for `[N-]=[N+]=Nc1cc(=O)[nH]nc1-c1ccccc1` was over 100 µM.
Same read-out and setting: then `O=C(NCCCl)N(O)C(=O)Nc1ccccc1`, with over 100 µM.
